The numbers were not newly measured in patent US12233067B2, “Topical treatment of vitiligo by a JAK inhibitor” (Incyte Corporation, priority 2019, dated 2025), which cites them from elsewhere.

Data set [1] deals with patient with both alopecia areata and vitiligo. The note with it: oral 20 mg BID for 20 weeks.
The subject of data set [2] is patient with widespread and progressive vitiligo. The note with it: oral 5 mg QD; after 5 months of treatment.

As for `N#CC[C@H](C1CCCC1)n1cc(-c2ncnc3[nH]ccc23)cn1` [ruxolitinib, (R)-3-(4-(7H-pyrrolo[2,3-d]pyrimidin-4-yl)-1H-pyrazol-1-yl)-3-cyclopentylpropanenitrile], the clinical outcome in data set [1] is on record as “hair regrowth as well as repigmentation of areas affected with vitiligo”.
Turning to `C[C@@H]1CCN(C(=O)CC#N)C[C@@H]1N(C)c1ncnc2[nH]ccc12` [tofacitinib], the clinical outcome in data set [2] is reported as “near complete repigmentation”.
